In experiment [1] the test system is Streptococcus sp. 'group A'. In words: Streptococcus pyogenes SK(-)GAS viability under kanamycin – luminescence, BacTiterGlo, confirmation, counter-screen for streptokinase expression inhibitor project, dose response (AID 1900). The experiment is classed as functional, organism-based. Background: The purpose of a counterscreen is to sort out artefacts and off-target activity.

The subject of experiment [2] is Streptococcus. The experiment in a line: GAS UMAA2166 growth inhibition – luminescence, BacTiterGlo, counter-screen for streptokinase expression inhibitor project, dose response (AID 1915).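 Also: potency for reduction of bacterial viability or growth.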 The experiment is classed as functional, organism-based.
In experiment [3] the target is T1, Cytochrome P450 1A2 (Homo sapiens, UniProt P05177).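 Also: PubChem cytochrome P450 panel assay, CYP1A2 panel member.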
T1 sequence (P05177 whole entry): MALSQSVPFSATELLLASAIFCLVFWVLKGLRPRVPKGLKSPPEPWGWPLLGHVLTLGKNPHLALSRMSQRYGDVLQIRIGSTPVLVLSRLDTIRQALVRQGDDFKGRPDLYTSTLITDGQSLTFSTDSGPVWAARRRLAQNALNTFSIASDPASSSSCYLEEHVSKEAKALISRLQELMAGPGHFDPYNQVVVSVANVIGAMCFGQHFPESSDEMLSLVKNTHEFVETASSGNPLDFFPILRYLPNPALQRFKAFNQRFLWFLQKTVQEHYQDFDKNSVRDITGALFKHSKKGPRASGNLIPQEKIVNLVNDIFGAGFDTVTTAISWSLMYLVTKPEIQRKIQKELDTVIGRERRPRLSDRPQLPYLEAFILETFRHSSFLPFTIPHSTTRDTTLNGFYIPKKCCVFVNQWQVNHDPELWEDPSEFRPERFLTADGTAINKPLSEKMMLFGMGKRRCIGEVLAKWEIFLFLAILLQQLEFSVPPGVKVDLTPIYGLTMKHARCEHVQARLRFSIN

Experiment [4] deals with T2, Streptokinase A (Streptococcus pyogenes serotype M1, UniProt P10520).
T2 sequence (P10520 whole entry): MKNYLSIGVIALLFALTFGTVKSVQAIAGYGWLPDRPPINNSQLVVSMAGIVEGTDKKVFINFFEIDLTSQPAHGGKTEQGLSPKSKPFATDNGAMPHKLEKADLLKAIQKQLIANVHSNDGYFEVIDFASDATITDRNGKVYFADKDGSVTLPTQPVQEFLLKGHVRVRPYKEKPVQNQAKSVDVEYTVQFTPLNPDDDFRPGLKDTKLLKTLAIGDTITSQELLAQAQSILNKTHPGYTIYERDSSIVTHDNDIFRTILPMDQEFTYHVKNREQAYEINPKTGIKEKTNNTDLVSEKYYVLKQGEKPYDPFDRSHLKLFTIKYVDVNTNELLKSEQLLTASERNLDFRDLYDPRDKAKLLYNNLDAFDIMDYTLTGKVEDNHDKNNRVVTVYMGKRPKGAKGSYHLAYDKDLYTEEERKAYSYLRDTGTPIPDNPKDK
In words: viability-normalized secreted streptokinase activity reduction – plasminogen activation absorbance, OD405, dose response (AID 1914).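 Also: secreted streptokinase activity via plasminogen activation per viability signal from cell pellet.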 The experiment is classed as functional, Streptococcus pyogenes M1 GAS.

Experiment [5] is described as follows: NIH3T3 cell viability loss – ATP luminescence, mouse fibroblasts, counter-screen, dose response (AID 2010).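 Also: cells exposed to compound for about 90 hours before reading.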 Type of experiment: functional, cell-based.
Experiment [6] in a line: Trypanosoma cruzi growth suppression in host cells – NIH3T3 host cells, beta-gal luminescence, confirmation (AID 2044).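 Also: intracellular parasites grown in NIH/3T3 mouse fibroblasts as host cells; luminescent beta-galactosidase reporter signal from transgenic T. cruzi replicating inside host cells; inhibitors lower the luminescence signal.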 The experiment is classed as functional, cell-based.
Experiment [7] relates to H4. In words: Luminescence Cell-Based Dose Response HTS to Identify Activators of 5'UTR Stem-Loop Driven Prion Protein mRNA Translation in H4 Neuroglioblastoma Cells. [Related pubchem assays: 1829 (Project Summary), 1814 (Primary HTS)]. Type of experiment: functional. The conditions noted are these: Homo sapiens.
The nature of experiment [8]: Luminescence Cell-Based Dose Response HTS to Identify Activators of Luciferase Translation or Activity in H4 […] Cells. [Related pubchem assays: 1829 (Project Summary), 1814 (Primary HTS)]. The experiment is classed as functional.

Activity calls are given as the source filed them. Rule as the data show it, for most assays here: actives have a measured EC50 and inactives only a lower limit.

This note sets out measurements from ChEMBL document CHEMBL1201862, “PubChem BioAssay data set” (2004).

One may read the EC50 as the midpoint of the concentration-response curve. In general, AC50 refers to the midpoint of the concentration-response curve, whichever way the signal moves.

Consider `CCC[C@]12CN3C[C@](CCC)(CN(C1)C3c1ccccn1)C2=O` (some centres undefined), for which the EC50 in experiment [1] was 43.8 µM (active); in experiment [2] it was > 150 µM (not active).

In the case of `COc1ccccc1CN1CC[C@@]2(CCCN(C(=O)c3cc(C(F)(F)F)cc(C(F)(F)F)c3)C2)C1`, in experiment [3], the AC50 is 15.8 µM (inconclusive).

As for `O=C(CC(NS(=O)(=O)c1ccc(Cl)cc1)c1ccco1)NCc1ccco1` (centres undefined), in experiment [3], the AC50 is 25.1 µM (inconclusive).

`Cc1ccc(C(=O)N2CCCC(CCC(=O)NCc3ccccc3F)C2)cn1` (centres undefined): the EC50 in experiment [1], in experiment [2] and in experiment [4] was > 150 µM (not active) each time.

For the molecule `COc1ccc(C2c3ccsc3CCN2C(=O)C(C)(C)C)cc1` (centres undefined), the EC50 in experiment [1], in experiment [2] and in experiment [4] was > 150 µM (not active) each time.

As to `CCn1c(SCC(=O)N/N=C/C=C\c2ccccc2[N+](=O)[O-])nnc1-c1ccccc1`, in experiment [3], the AC50 is 28.2 µM (inconclusive).

As for `O=C(COc1ccccc1)Nc1cccc(-c2nc3ccccc3[nH]2)c1`, the figures for the EC50 in experiment [1], in experiment [2] and in experiment [4] were 22.7 µM (active), > 150 µM (not active) and > 150 µM (not active), respectively.

As for `O=C(c1ccncc1)N1CCC2(CCCN(c3cccc(-c4ccccc4)c3)C2)CC1`, the AC50 in experiment [3] is 12.6 µM (inconclusive).

With `Cc1c(Cl)cnn1CC(=O)NC1C(=O)N2C(C(=O)O)=C(CSc3nnnn3C)CSC12` (centres undefined), the EC50 in experiment [1] is 0.1 µM (active); in experiment [2], 0.283 µM (active).

For `Nc1ccc(-c2ccc(N)cc2C(F)(F)F)c(C(F)(F)F)c1`, the EC50 in experiment [1] is 31 µM (active); in experiment [2] it was > 150 µM (not active); in experiment [4] it was 76.8 µM (active).

On to `O=C(c1cc(COc2cccc3cnccc23)on1)N1CCC(c2ccccc2Cl)C1` (centres undefined), for which the values for the EC50 in experiment [5] and in experiment [6] were > 60 µM (not active) and 1.57 µM (active), respectively.

For the molecule `O=[N+]([O-])c1ccc(N2CCN(S(=O)(=O)c3ccc(Cl)cc3)CC2)cc1NCc1cccnc1`, the figures for the EC50 in experiment [5] and in experiment [6] were 15.4 µM (active) and 1.38 µM (active), respectively.

`O=C(Nc1ccccc1)Nc1ccc(-n2ccc(C(F)(F)F)n2)cc1`: the concentration for a half-maximal effect (EC50) in experiment [7] is > 120 µM (not active); in experiment [8] it was 0.648 µM (active).

With `Cc1ccc2nc(N(CCCN(C)C)C(=O)c3ccc(Br)s3)sc2c1`, the results for the EC50 in experiment [5] and in experiment [6] were > 60 µM (not active) and 0.102 µM (active), respectively.

With `O=c1[nH]c2cc3c(cc2cc1CN(CCc1ccccc1)Cc1nnnn1CC1CCCO1)OCO3` (centres undefined), in experiment [4], the EC50 is on record as > 150 µM (not active).

Take `CC(C)(C)c1ccc(C(=O)NCc2nnc(SCC(=O)NC3CCCC3)o2)cc1`: the EC50 in experiment [1] was > 150 µM (not active); in experiment [2], > 150 µM (not active); in experiment [4] it was > 150 µM (inconclusive).

For the molecule `Cc1cc(C)c(-c2csc(NC(=O)COC(=O)c3ccc4c(c3)OCO4)n2)c(C)c1`, the concentration giving a half-maximal response (EC50) in experiment [5] was > 60 µM (not active); in experiment [6] it was 4.69 µM (active).

In the case of `CC1=C/C(=N\NC(=S)NCc2ccccc2)CC1`, the EC50 in experiment [5] was > 60 µM (not active); in experiment [6], 2.88 µM (active).

Consider `CCOC(=O)c1ccc(NC(=S)N(Cc2cccnc2)Cc2ccco2)cc1`, for which the results for the EC50 in experiment [5] and in experiment [6] were > 60 µM (not active) and 0.631 µM (active), respectively.

With `Oc1nc2cc3c(cc2cc1CN(CCc1ccccc1)Cc1nnnn1CC1CCCO1)OCO3` (centres undefined), the EC50 in experiment [1] and in experiment [2] was > 150 µM (not active) each time.

Consider `OC(COCC(F)(F)C(F)(F)C(F)(F)C(F)F)Cn1c2ccc(Cl)cc2c2cc(Cl)ccc21` (centres undefined), for which the EC50 in experiment [1] was 2.2 µM (active); in experiment [2] it was 2.62 µM (active).

In the case of `COc1ccccc1NC(=O)NCCCCc1ccccc1`, the EC50 in experiment [1], in experiment [2] and in experiment [4] was > 150 µM (not active) in each case.

Take `Cc1ccc(-n2c(SCC(=O)c3c(N)n(C)c(=O)n(C)c3=O)nc3sc4c(c3c2=O)CCCC4)c(C)c1`: the EC50 in experiment [5] was 50.5 µM (active); in experiment [6], 2.1 µM (active).

Take `N#CC1=C(N)OC2=C(C(=O)CC(c3ccccc3)C2)C1c1cccnc1` (centres undefined): the values for the EC50 in experiment [5] and in experiment [6] were > 30 µM (not active) and 0.111 µM (active), respectively.

Consider `CN(C)Cc1nc2ccccc2c(=O)n1Cc1nc(-c2cc3ccccc3o2)cs1`, for which the EC50 in experiment [1] is 10.4 µM (active); in experiment [2], > 150 µM (not active); in experiment [5], > 30 µM (not active); in experiment [4], 104 µM (active); in experiment [6], 2.57 µM (active).

In the case of `Cc1cc(C)cc(NC(S)=NCCSc2ccc(Cl)cc2)c1`, the EC50 was 11.8 µM (active) in experiment [1], > 150 µM (not active) in experiment [2] and 15.9 µM (active) in experiment [4].

As to `CCOC(=O)N1CCN(c2cc(N3CCN(CC)CC3)c(F)cc2[N+](=O)[O-])CC1C` (centres undefined), the results for the concentration giving a half-maximal response (EC50) in experiment [5] and in experiment [6] were > 60 µM (inconclusive) and 0.184 µM (active), respectively.

As for `Cc1cc2occ(CC(=O)NC3=NCCS3)c2cc1C(C)C`, the half-maximal effective concentration (EC50) in experiment [1] is 71.7 µM (active); in experiment [2], > 150 µM (not active); in experiment [4], > 150 µM (not active).

On to `O=S(=O)(O)c1cc(/N=N\c2cccc3ccccc23)c(O)c2ncccc12`, for which, in experiment [3], the AC50 is 0.631 µM (inconclusive).

`c1ccc(N2CCN(c3nc4cc5c(cc4s3)OCCO5)CC2)cc1`: the EC50 in experiment [7] was 46 µM (inconclusive).

Take `CC(=O)c1c(C)[nH]c(C(=O)Nc2nccs2)c1C`: the EC50 in experiment [7] and in experiment [8] was > 120 µM (not active) in each case.

`COc1cc(/C=C(/C#N)c2ccc(C)cc2)ccc1Oc1ccc([N+](=O)[O-])cn1`: the EC50 in experiment [5] is > 60 µM (not active); in experiment [6], 1.54 µM (active).

Turning to `CCOc1ccccc1CN1CCN(Cc2[nH]c3ccccc3c2C)CC1CCO` (centres undefined), the concentration for a half-maximal effect (EC50) in experiment [5] is > 60 µM (not active); in experiment [6], 0.204 µM (active).

On to `O=C(Nc1cccc(NC(=O)c2cccnc2)c1)c1ccccc1`, for which the EC50 in experiment [1], in experiment [2] and in experiment [4] was > 150 µM (not active) in each case.

In the case of `CN(C)CCCN1c2ccccc2C(C)(C)c2ccccc21` [DIMETACRINE], the AC50 in experiment [3] is 5.01 µM (inconclusive).

Consider `CCSc1nc2nc(C)cc(C)n2n1`, for which the AC50 in experiment [3] is 12.6 µM (inconclusive).

Regarding `CCCCC(C=O)NC(=O)C(CC(C)C)NC(=O)OCc1ccccc1` (centres undefined), in experiment [3], the AC50 was 31.6 µM (inconclusive).

On to `Cc1c([N+](=O)[O-])nnn1-c1cc(Cl)cc(Cl)c1`, for which the EC50 is > 30 µM (not active) in experiment [5] and 1.86 µM (active) in experiment [6].

With `COc1cccc(-c2nnc(NC(=O)c3ccc(S(=O)(=O)N4CC(C)OC(C)C4)cc3)o2)c1` (centres undefined), the EC50 in experiment [1] was 1.3 µM (active); in experiment [2] it was 2.15 µM (active).

As to `COc1ccc(Nc2nc(NC(C)(C)C)nc(N3CCOCC3)n2)c(OC)c1`, the EC50 in experiment [5] was > 60 µM (not active); in experiment [6], 1.59 µM (active).

Turning to `CCSc1nnc(NC(=O)COc2ccc3ccccc3c2)s1`, in experiment [3], the AC50 is 10 µM (inconclusive).

With `COc1ccc(OCC(=O)Nc2ccc(Cl)cc2C(=O)c2ccccc2)cc1`, the AC50 in experiment [3] is 3.55 µM (inconclusive).

On to `O=c1n(-c2ccc(Br)cc2)cnn1-c1ncccc1[N+](=O)[O-]`, for which the results for the concentration for a half-maximal effect (EC50) in experiment [7] and in experiment [8] were 17.3 µM (active) and 2.9 µM (active), respectively.

With `OCCCNc1[nH]cnc2nncc1-2`, in experiment [3], the AC50 is 6.31 µM (inconclusive).

Regarding `CN1CCc2c(sc(NC(=O)c3cc4cc([N+](=O)[O-])ccc4s3)c2C(N)=O)C1`, the EC50 in experiment [5] was 14.3 µM (active); in experiment [6], 1.73 µM (active).
